The values below come from patent publication US20240279241A1, “PYRIDO[4,3-D]PYRIMIDINE COMPOUNDS CAPABLE OF INHIBITING KRAS MUTANT PROTEINS” (Redx Pharma PLC, priority 2021, published 2024).

One experiment addresses T1, KRAS WT (Homo sapiens, UniProt P01116).
T1 construct: Recombinant human RAS protein (2 nM); aa1-188 KRAS WT
The experiment is described as follows: HTRF nucleotide exchange assay (NEA), KRAS WT. In kind it is biochemical. The method, then: (§1) The capacity of compounds to bind KRAS G12D, other KRAS mutants and wildtype RAS isoforms was quantified using a HTRF nucleotide exchange assay. Recombinant human RAS protein (2 nM; aa1-188 KRAS WT, HRAS WT, NRAS WT, or KRAS containing the containing the G12D, G13D or Q61H amino acid substitutions, or 4 nM KRAS; aa1-188 containing the G12V, G12C, G12A or G12S amino acid substitution, an N-terminal 6×His-tag and leader sequence), and 2 nM Europium-labeled anti-6×His antibody were mixed in assay buffer (10 mM HEPES pH7.3, 150 mM NaCl, 5 mM MgCl2, 0.05% BSA, 0.0025% NP-40 and 100 mM KF) with various concentrations of compound in a 384-well plate and a volume of 5 uL. After a 60-minute incubation at room temperature, 5 ul of 200 nM EDA-GTP-DY647P1 (diluted in assay buffer) was added to the plate. Following 30-minute incubation at room temperature, time-resolved fluorescence was measured on a PerkinElmer Envision plate reader. DMSO (0.3%) and unlabeled […] (1 μM) or equivalent tool compound were used to generate the Max and Min assay signals, respectively. Data was analysed using a four-parameter logistic model to calculate IC50 values, with at least two independent replicates were performed for each compound.

The next experiment deals with T2, KRAS G12D (Homo sapiens, UniProt P01116, G12D).
T2 construct: Recombinant human RAS protein (2 nM)
The experiment is described as follows: HTRF nucleotide exchange assay (NEA), KRAS G12D. In kind it is biochemical. The following applies: recombinant human KRAS G12D aa1-188, 2 nM; lowest class = % inhibition at 10 μM. The method, then:
as §1
For orientation: In TR-FRET formats the signal depends on donor and acceptor labels being close together.

Where [1] appears, read: recombinant human KRAS WT aa1-188, 2 nM, lowest class = % inhibition at 10 μM.

The term IC50 denotes the concentration at which inhibition is half-maximal.

Read-outs that look alike come from different tables or passages of the source.

T2 sequence (P01116 1-188 isoform P01116-2 G12D): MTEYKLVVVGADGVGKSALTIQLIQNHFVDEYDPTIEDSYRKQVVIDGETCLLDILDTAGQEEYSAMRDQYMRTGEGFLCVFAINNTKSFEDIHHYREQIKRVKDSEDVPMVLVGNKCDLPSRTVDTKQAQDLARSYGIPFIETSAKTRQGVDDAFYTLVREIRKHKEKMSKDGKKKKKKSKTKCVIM
T1 sequence (P01116 1-188 isoform P01116-2): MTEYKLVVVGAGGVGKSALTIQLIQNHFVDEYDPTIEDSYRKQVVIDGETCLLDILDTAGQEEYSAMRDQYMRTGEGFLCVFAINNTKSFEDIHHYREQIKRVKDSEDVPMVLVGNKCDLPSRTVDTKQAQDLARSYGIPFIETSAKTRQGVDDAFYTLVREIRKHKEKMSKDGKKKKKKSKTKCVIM

Regarding `Oc1cc(-c2ncc3c(N4CCn5cncc5C4)nc(OCC45CCCN4CCC5)nc3c2F)c2ccccc2c1` [Example 58, 4-[4-(6,8-dihydro-5H-imidazo[1,5-a]pyrazin-7-yl)-8-fluoro-2-(1,2,3,5,6,7-hexahydropyrrolizin-8-ylmethoxy)pyrido [4,3-d]pyrimidin-7-yl]naphthalen-2-ol], the IC50 on KRAS WT and on KRAS G12D was 0.1 to 10 µM throughout.

Turning to `Fc1c(-c2cccc3[nH]ncc23)ncc2c(N3CCCOCC3)nc(OC[C@@]34CCCN3C[C@H](F)C4)nc12` [Example 95, 4-[8-fluoro-7-(1H-indazol-4-yl)-2-[[trans-2-fluoro-1,2,3,5,6,7-hexahydropyrrolizin-8-yl]methoxy]pyrido[4,3-d]pyrimidin-4-yl]-1,4-oxazepane], the IC50 on KRAS WT (setting [1]) was above 10 µM; on KRAS G12D, 0.1 to 10 µM.

For `COCCCNc1nc(OCC23CCCN2CCC3)nc2c(F)c(-c3cc(O)cc4ccccc34)ncc12` [Example 29, 4-[8-fluoro-2-(1,2,3,5,6,7-hexahydropyrrolizin-8-ylmethoxy)-4-(3-methoxypropylamino)pyrido[4,3-d]pyrimidin-7-yl]naphthalen-2-ol], the IC50 at KRAS WT (setting [1]) and at KRAS G12D was 0.1 to 10 µM in each case.

As for `COC1CCN(c2nc(OCC34CCCN3CCC4)nc3c(F)c(-c4cc(O)cc5ccccc45)ncc23)CC1` [Example 21, 4-[8-fluoro-2-(1,2,3,5,6,7-hexahydropyrrolizin-8-ylmethoxy)-4-(4-methoxy-1-piperidyl)pyrido[4,3-d]pyrimidin-7-yl]naphthalen-2-ol], the IC50 on KRAS WT and on KRAS G12D was 0.1 to 10 µM throughout.

In the case of `CC(C)OCCCNc1nc(OCC23CCCN2CCC3)nc2c(F)c(-c3cc(O)cc4ccccc34)ncc12` [Example 30, 4-[8-fluoro-2-(1,2,3,5,6,7-hexahydropyrrolizin-8-ylmethoxy)-4-(3-isopropoxypropyl-amino)pyrido[4,3-d]pyrimidin-7-yl]naphthalen-2-ol], the IC50 against KRAS WT and at KRAS G12D was 0.1 to 10 µM each time.

For the molecule `Oc1cc(-c2ncc3c(N4CCc5[nH]ncc5C4)nc(OCC45CCCN4CCC5)nc3c2F)c2ccccc2c1` [Example 61, 4-[8-fluoro-2-(1,2,3,5,6,7-hexahydropyrrolizin-8-ylmethoxy)-4-(1,4,6,7-tetrahydropyrazolo [4,3-c]pyridin-5-yl)pyrido[4,3-d]pyrimidin-7-yl]naphthalen-2-ol], the IC50 against KRAS WT and on KRAS G12D was 0.1 to 10 µM each time.

Regarding `Oc1cc(-c2ncc3c(N4CCn5nccc5C4)nc(OCC45CCCN4CCC5)nc3c2F)c2ccccc2c1` [Example 57, 4-[4-(6,7-dihydro-4H-pyrazolo[1,5-a]pyrazin-5-yl)-8-fluoro-2-(1,2,3,5,6,7-hexahydropyrrolizin-8-ylmethoxy)pyrido [4,3-d]pyrimidin-7-yl]naphthalen-2-ol], the IC50 on KRAS WT and at KRAS G12D was 0.1 to 10 µM each time.

As for `COC1CCCN(c2nc(OCC34CCCN3CCC4)nc3c(F)c(-c4cc(O)cc5ccccc45)ncc23)C1` (stereo not shown) [Example 42, 4-[8-fluoro-2-(1,2,3,5,6,7-hexahydropyrrolizin-8-ylmethoxy)-4-(3-methoxy-1-piperidyl)pyrido[4,3-d]pyrimidin-7-yl]naphthalen-2-ol], the IC50 against KRAS WT and at KRAS G12D was 0.1 to 10 µM each time.

In the case of `CC1CN(c2nc(OCC34CCCN3CCC4)nc3c(F)c(-c4cc(O)cc5ccccc45)ncc23)CCC1O` (stereo not shown) [Example 68, 1-[8-fluoro-2-(1,2,3,5,6,7-hexahydropyrrolizin-8-ylmethoxy)-7-(3-hydroxy-1-naphthyl)pyrido[4,3-d]pyrimidin-4-yl]-3-methyl-piperidin-4-ol], the IC50 at KRAS WT and on KRAS G12D was 0.1 to 10 µM throughout.

Turning to `Oc1cc(-c2ncc3c(N4CCc5cn[nH]c5C4)nc(OCC45CCCN4CCC5)nc3c2F)c2ccccc2c1` [Example 62, 4-[8-fluoro-2-(1,2,3,5,6,7-hexahydropyrrolizin-8-ylmethoxy)-4-(1,4,5,7-tetrahydropyrazolo [3,4-c]pyridin-6-yl)pyrido[4,3-d]pyrimidin-7-yl]naphthalen-2-ol], the concentration for half-maximal inhibition (IC50) against KRAS WT and at KRAS G12D was 0.1 to 10 µM in each case.

Take `Oc1cc(-c2ncc3c(N4CC5CC(C4)C5O)nc(OCC45CCCN4CCC5)nc3c2F)c2ccccc2c1` (stereo not shown) [Example 71, 3-[8-fluoro-2-(1,2,3,5,6,7-hexahydropyrrolizin-8-ylmethoxy)-7-(3-hydroxy-1-naphthyl)pyrido[4,3-d]pyrimidin-4-yl]-3-azabicyclo[3.1.1] heptan-6-ol]: the IC50 at KRAS WT and at KRAS G12D was 0.1 to 10 µM each time.

As for `Oc1cc(-c2ncc3c(NC4CCOCC4)nc(OCC45CCCN4CCC5)nc3c2F)c2ccccc2c1` [Example 15, 4-[8-fluoro-2-(1,2,3,5,6,7-hexahydropyrrolizin-8-ylmethoxy)-4-(tetrahydropyran-4-ylamino)pyrido[4,3-d]pyrimidin-7-yl]naphthalen-2-ol], the half-inhibitory concentration (IC50) against KRAS WT and at KRAS G12D was 0.1 to 10 µM throughout.

In the case of `COCCC(C)Nc1nc(OCC23CCCN2CCC3)nc2c(F)c(-c3cc(O)cc4ccccc34)ncc12` (stereo not shown) [Example 44, 4-[8-fluoro-2-(1,2,3,5,6,7-hexahydropyrrolizin-8-ylmethoxy)-4-[(3-methoxy-1-methyl-propyl)amino]pyrido [4,3-d]pyrimidin-7-yl]naphthalen-2-ol], the IC50 on KRAS WT and at KRAS G12D was 0.1 to 10 µM each time.

Regarding `CC(=O)OCCCNc1nc(OCC23CCCN2CCC3)nc2c(F)c(-c3cc(O)cc4ccccc34)ncc12` [Example 64, 3-[[8-fluoro-2-(1,2,3,5,6,7-hexahydropyrrolizin-8-ylmethoxy)-7-(3-hydroxy-1-naphthyl)pyrido[4,3-d]pyrimidin-4-yl]amino]propyl acetate], the IC50 against KRAS WT and at KRAS G12D was 0.1 to 10 µM in each case.

On to `C#Cc1c(F)ccc2cc(O)cc(-c3ncc4c(N5CCNC(=O)CC5)nc(OC[C@@]56CCCN5C[C@H](F)C6)nc4c3F)c12` (relative stereo) [Example 87, 1-[7-(8-ethynyl-7-fluoro-3-hydroxy-1-naphthyl)-8-fluoro-2-[[trans-2-fluoro-1,2,3,5,6,7-hexahydropyrrolizin-8-yl]methoxy]pyrido [4,3-d]pyrimidin-4-yl]-1,4-diazepan-5-one], for which the IC50 against KRAS WT and at KRAS G12D was at most 0.01 µM in each case.

As for `Oc1cc(-c2ncc3c(NC4CCCCC4)nc(OCC45CCCN4CCC5)nc3c2F)c2ccccc2c1` [Example 35, 4-[4-(cyclohexylamino)-8-fluoro-2-(1,2,3,5,6,7-hexahydropyrrolizin-8-ylmethoxy)pyrido [4,3-d]pyrimidin-7-yl]naphthalen-2-ol], the half-inhibitory concentration (IC50) against KRAS WT and at KRAS G12D was 0.1 to 10 µM throughout.

Take `Fc1c(-c2cccc3[nH]ncc23)ncc2c(N3CCCOCC3)nc(OCC34CCCN3CCC4)nc12` [Example 92, 4-[8-fluoro-2-(1,2,3,5,6,7-hexahydropyrrolizin-8-ylmethoxy)-7-(1H-indazol-4-yl)pyrido[4,3-d]pyrimidin-4-yl]-1,4-oxazepane]: the values for the IC50 on KRAS WT (setting [1]) and on KRAS G12D were above 10 µM and 0.1 to 10 µM, respectively.

Take `Oc1cc(-c2ncc3c(N4CCC5(CCOC5)C4)nc(OCC45CCCN4CCC5)nc3c2F)c2ccccc2c1` (stereo not shown) [Example 48, 4-[8-fluoro-2-(1,2,3,5,6,7-hexahydropyrrolizin-8-ylmethoxy)-4-(2-oxa-7-azaspiro[4.4]nonan-7-yl)pyrido [4,3-d]pyrimidin-7-yl]naphthalen-2-ol]: the IC50 at KRAS WT and at KRAS G12D was 0.1 to 10 µM in each case.

As for `COCC(C)(C)CNc1nc(OCC23CCCN2CCC3)nc2c(F)c(-c3cc(O)cc4ccccc34)ncc12` [Example 43, 4-[8-fluoro-2-(1,2,3,5,6,7-hexahydropyrrolizin-8-ylmethoxy)-4-[(3-methoxy-2,2-dimethyl-propyl)amino]pyrido [4,3-d]pyrimidin-7-yl]naphthalen-2-ol], the IC50 against KRAS WT and at KRAS G12D was 0.1 to 10 µM each time.

For the molecule `NS(=O)(=O)CCCNc1nc(OCC23CCCN2CCC3)nc2c(F)c(-c3cc(O)cc4ccccc34)ncc12` [Example 67], the IC50 against KRAS WT and on KRAS G12D was 0.1 to 10 µM in each case.

As to `CC1CC(O)CCN1c1nc(OCC23CCCN2CCC3)nc2c(F)c(-c3cc(O)cc4ccccc34)ncc12` (stereo not shown) [Example 69, 1-[8-fluoro-2-(1,2,3,5,6,7-hexahydropyrrolizin-8-ylmethoxy)-7-(3-hydroxy-1-naphthyl)pyrido[4,3-d]pyrimidin-4-yl]-2-methyl-piperidin-4-ol], the IC50 fell in the range of 0.1 to 10 µM against KRAS WT and 0.01 to 0.1 µM at KRAS G12D.

Turning to `Oc1cc(-c2ncc3c(N4CCC5CCC(C4)O5)nc(OCC45CCCN4CCC5)nc3c2F)c2ccccc2c1` (stereo not shown) [Example 80, 4-[8-fluoro-2-(1,2,3,5,6,7-hexahydropyrrolizin-8-ylmethoxy)-4-(9-oxa-3-azabicyclo[4.2.1]nonan-3-yl)pyrido [4,3-d]pyrimidin-7-yl]naphthalen-2-ol], the IC50 against KRAS WT and at KRAS G12D was 0.1 to 10 µM in each case.

For `COCCNc1nc(OCC23CCCN2CCC3)nc2c(F)c(-c3cc(O)cc4ccccc34)ncc12` [Example 12], the IC50 at KRAS WT and at KRAS G12D was 0.1 to 10 µM in each case.
